From paper PMC6155227 (Molecules : A Journal of Synthetic Chemistry and Natural …, 2017)
pEC50: −log10 of the molar value.

Key:
[1] = tested on: porcine reproductive and respiratory syndrome virus (PRRSV); settings: cited from earlier work
[2] = tested on: H5N1(A/Vietnam/1203/2004) strain; assay: microbe, parasite or virus in culture; type: cell-based, influenza virus A/Vietnam/1203/2004 (H5N1); settings: Influenza A virus, H5N1, MDCK
MDCK cells = settings: dog
avian influenza virus = settings: mouse, in vivo; cited from earlier work

Compound: CCCC(=O)c1c(O)c(C)c(O)c(CC2=C(O)C(C)(C)C(O)=C(C(C)=O)C2=O)c1O [Flavaspidic acid AB, flavaspidic acid AB]
- virus replication [1]: inhibit replication

Compound: CCCC(=O)c1c(O)c(CC2=C(O)C(C)(C)C(O)=C(C(C)=O)C2=O)c(O)c(CC2=C(O)C(C)(C)C(O)=C(C(C)=O)C2=O)c1O [Filixic acid ABA, filixic acid ABA]
- inhibition at 100 µM ([2]; read-out: inhibition rate): < 50%
- maximal non-cytotoxic concentration (MDCK cells): 100 µM

Compound: CCCC(=O)c1c(O)c(CC2=C(O)C(C)(C)C(O)=C(C(C)=O)C2=O)c(O)c(Cc2c(O)c(CC3=C(O)C(C)(C)C(O)=C(C(C)=O)C3=O)c(O)c(C(=O)CCC)c2O)c1O [Dryocrassin ABBA, dryocrassin ABBA]
- pEC50 ([2]; 72 h, read-out: EC50 anti-influenza virus activity): 4.78
- protection of infected mice (avian influenza virus): protect mice infected with avian influenza virus
- 50% toxicity concentration (TC50) (MDCK cells): greater than 400 μM
